pIC50: −log10 of the molar value. Where two headings read alike, the source gives them in different places.
Legend:
hERG channel = molecular target: T1, hERG channel (Homo sapiens, UniProt Q12809); assay: hERG potassium channel current inhibition, whole-cell patch clamp; format: cell-based; conditions: hERG-expressing HEK 293 cells, whole-cell recording, 25 °C
T1 construct: host or cells: HEK 293
Experimental: Inhibition of human ether-a-go-go-related gene (hERG) potassium channel current was carried out following a standard protocol by Pharmaron, Inc. hERG stably expressed HEK 293 cell line (Cat# K1236) was purchased from Invitrogen (Thermo Fisher Scientific, USA). The cells are cultured in 90% DMEM, 10% dialyzed FBS, 0.1 mM NEAA, 25 mM HEPES, 100 U/mL Penicillin-Streptomycin, 5 µg/mL Blasticidin, and 400 µg/mL Geneticin. Cells are split using TrypLE Express about three times a week and maintained between ~40% and ~80% confluence. Before the assay, the cells were plated onto the coverslips at 5 × 10^5 cells/6 cm cell culture dish and induced with doxycycline at 1 µg/mL for 48 h. Test compound was initially prepared in DMSO with final concentration of 30 mM as stock solution. Then stock solution of test compound was serial-diluted by ratio of 1:3 with DMSO to prepare additional four intermedial solutions including 10, 3.33, 1.11, 0.37 mM, respectively. […] 5 doses were challenged to the patched cells for IC50 determination.
The voltage-gated hERG potassium channel current was recorded at room temperature (25 °C) from randomly selected transfected cells using whole-cell recording technique with a Multiclamp 700B amplifier (Molecular Devices, US) and an EPC10 microamplifier (HEKA, USA). Extracellular solution (in mM): 132 NaCl, 4 KCl, 3 CaCl2, 0.5 MgCl2, 11.1 glucose, and 10 HEPES (pH adjusted to 7.35 with NaOH). Intracellular solution (in mM): 70 KF, 60 KCl, 15 NaCl, 5 EGTA, and 5 HEPES (pH adjusted to 7.35 with KOH).
The holding potential was set to −90 mV for 1 s; recording current at 50 kHz and filter at 10 kHz. Leaking current was tested at −80 mV for 500 ms. […] The current was recorded for 120 s to assess the current stability. […] After allowing the current to stabilize for 3 min, compound was applied. hERG current in the presence of test compound were recorded for approximately 5 min to reach steady state and then five sweeps were captured. […] Percent current inhibition was calculated using the following equation. […]

[1] = stability in human liver microsomes; format: in vitro ADME; conditions: both sexes
Experimental: Experiments were performed by Pharmaron, Inc., China. […] Negative control samples were prepared by replacing the NADPH solution with ultrapure H2O. The negative controls were used to exclude the confounding variable of test compound instability. Experiments involving NADPH were carried out in duplicate. Negative controls were prepared in singlet. Aliquots (90 µL) were taken at 0, 15, 30, 45, and 60 min of incubation. The microsomal reaction in each aliquot was stopped by the addition of four volumes of cold acetonitrile containing internal standards (100 nM alprazolam, 200 nM imipramine, 200 nM labetalol, and 2 µM ketoprofen). The samples were centrifuged at 3,220 × g for 40 min, and an aliquot (90 µL) of the supernatant was mixed with 90 µL of ultrapure H2O. The resulting mixture was used for liquid chromatography–tandem mass spectrometry (LC-MS/MS) analysis (Shimadzu and SCIEX Triple Quad 4500). Peak areas were determined from extracted ion chromatograms. A slope, k, was determined by linear regression analysis of a plot of the natural logarithm of the remaining percentage of the parent drug versus incubation time. The in vitro t1/2 (min) was determined from the slope: in vitro t1/2=−(0.693/k) In vitro t1/2 (min, mean of duplicate determinations) was converted to in vitro intrinsic clearance (in vitro Clint, μL/(min·µg protein)) by means of the following equation : in vitro Clint=(0.693/t1/2)×(volume of incubation (μL)/amount of protein (μg))

THP-1 cells = conditions: cited from earlier work
LXRβ = molecular target: T2, LXRβ (Homo sapiens, UniProt P55055); assay: LXRβ radioligand binding inhibition; conditions: [3H]T0901317 binding, recombinant protein; for % inhibition observed, LXRβ: 10 µM; for inhibition at 10 µM: read-out: % inhibition observed, LXRβ
T2 construct: Eurofins (assay provider); host or cells: E. coli
T2 sequence (P55055 1-460): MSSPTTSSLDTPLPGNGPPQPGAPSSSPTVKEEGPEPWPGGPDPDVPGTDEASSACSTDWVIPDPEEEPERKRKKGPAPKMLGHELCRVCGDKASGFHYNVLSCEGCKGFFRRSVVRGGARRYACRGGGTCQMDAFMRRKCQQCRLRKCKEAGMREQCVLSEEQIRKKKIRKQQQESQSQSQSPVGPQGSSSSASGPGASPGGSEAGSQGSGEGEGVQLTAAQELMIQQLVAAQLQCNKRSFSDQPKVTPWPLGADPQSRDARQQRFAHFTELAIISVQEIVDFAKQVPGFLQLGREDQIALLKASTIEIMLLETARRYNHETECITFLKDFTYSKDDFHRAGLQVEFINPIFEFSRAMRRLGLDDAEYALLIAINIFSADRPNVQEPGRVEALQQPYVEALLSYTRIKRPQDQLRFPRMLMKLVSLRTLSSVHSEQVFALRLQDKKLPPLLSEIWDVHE
Experimental: Four nuclear receptors: glucocorticoid, androgen, LXRα, and LXRβ were assayed. Inhibition of agonist binding to each of the receptors was carried out following a standard protocol by Eurofins, Inc., USA. Compounds were tested at 10 µM. Compound binding was measured by scintillation counting and was calculated as a % inhibition of the binding of a radioactively labeled ligand specific for each target. Percent inhibition of control specific binding was expressed as
100−[(measured specific binding)/(control specific binding)∗100]
where measured specific binding is the amount of radioactive ligand binding obtained in the presence of test compounds.
(iii) LXRα (human) recombinant protein expressed in E. coli; agonist radioligand 20 nM [^3H] […] (iv) LXRβ (human) recombinant protein expressed in E. coli; agonist radioligand 20 nM [^3H]

[2] = human liver microsomes, pH 7.4, 1 μM, HLM 0.5 mg/mL, 37°C, 1 h, mean of duplicates, read-out: HLM stability t1/2

T1 sequence (Q12809 whole entry): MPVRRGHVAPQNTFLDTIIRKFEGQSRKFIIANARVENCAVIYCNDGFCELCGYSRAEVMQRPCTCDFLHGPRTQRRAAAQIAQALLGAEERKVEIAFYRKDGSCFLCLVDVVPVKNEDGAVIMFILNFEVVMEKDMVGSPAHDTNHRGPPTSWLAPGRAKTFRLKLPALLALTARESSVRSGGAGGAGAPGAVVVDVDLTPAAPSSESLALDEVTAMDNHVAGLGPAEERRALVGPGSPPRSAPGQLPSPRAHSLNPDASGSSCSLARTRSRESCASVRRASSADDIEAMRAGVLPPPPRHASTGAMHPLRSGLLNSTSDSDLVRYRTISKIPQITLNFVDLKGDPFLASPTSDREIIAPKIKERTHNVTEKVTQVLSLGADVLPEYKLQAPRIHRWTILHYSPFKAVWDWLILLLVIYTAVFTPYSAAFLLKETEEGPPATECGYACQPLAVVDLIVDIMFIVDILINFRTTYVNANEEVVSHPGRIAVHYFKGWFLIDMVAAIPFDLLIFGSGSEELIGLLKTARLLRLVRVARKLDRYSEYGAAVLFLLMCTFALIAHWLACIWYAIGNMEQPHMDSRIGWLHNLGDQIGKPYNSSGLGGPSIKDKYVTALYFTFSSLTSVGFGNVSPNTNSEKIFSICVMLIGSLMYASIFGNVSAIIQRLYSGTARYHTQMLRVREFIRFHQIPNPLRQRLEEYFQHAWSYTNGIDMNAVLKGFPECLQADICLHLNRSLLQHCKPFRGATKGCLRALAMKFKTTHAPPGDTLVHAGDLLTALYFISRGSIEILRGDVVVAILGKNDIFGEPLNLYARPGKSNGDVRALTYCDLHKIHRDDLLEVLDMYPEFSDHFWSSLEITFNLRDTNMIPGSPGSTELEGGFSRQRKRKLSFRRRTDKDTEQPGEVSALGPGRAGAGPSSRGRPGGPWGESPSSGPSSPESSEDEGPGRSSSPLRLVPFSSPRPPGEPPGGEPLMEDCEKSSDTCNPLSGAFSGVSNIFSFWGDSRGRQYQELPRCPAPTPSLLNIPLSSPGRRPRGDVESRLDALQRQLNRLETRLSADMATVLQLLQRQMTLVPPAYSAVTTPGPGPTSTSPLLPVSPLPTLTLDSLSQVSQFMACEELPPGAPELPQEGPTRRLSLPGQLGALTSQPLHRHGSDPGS

Row | SMILES | pIC50 (hERG channel) | half-life at 1 µM [1, 2] [min] | half-life at 1 µM ([1]; human liver microsomes, pH 7.4, as stated in text, read-out: half-life in human liver microsomes) [min] | pIC50 (THP-1 cells) | % inhibition observed, LXRβ (LXRβ) | inhibition at 10 µM (LXRβ) [%] | half-life at 1 µM ([1]; microsomes, pH 7.4, HLM stability t1/2) [min] | pIC50 (THP-1 cells; read-out: Mammalian cell IC50 Cytotoxicity THP1, THP-1 cells, 72 h, Alamar Blue)
1 | C[C@]12CCC3C(CNC4=CC(=O)CC[C@@]43C)C1CCC2C(=O)NC(c1ccc(F)cc1)c1ccc(F)cc1 (stereo partly shown) [Compound 5] | 5.52 | 443 | > 360 | 4.62 | low binding | 26 |  | 
2 | CC(C)(C)c1ccc(C(C)(C)C)c(NC(=O)C2CCC3C4CNC5=CC(=O)CC[C@]5(C)C4CC[C@]23C)c1 (stereo partly shown) [Compound 1] | 6.02 |  |  |  | significantly inhibit binding | 72 | 45 | 4.74
3 | CCCN1CC2C3CCC(C(=O)Nc4cc(C(C)(C)C)ccc4C(C)(C)C)[C@@]3(C)CCC2[C@@]2(C)CCC(=O)C=C12 (stereo partly shown) [Compound 2] | 6.13 | 18 |  | 4.62 | significantly inhibit binding | 69 |  | 

From PMC12210912, “Pharmacologic properties and inhibitory activity of 6-azasteroids against Mycobacterium leprae in vivo and in vitro” (Microbiology Spectrum, 2025)
